Laboratory results taken from US8722849B2, “Polypeptides” (Novo Nordisk A/S, priority 2011, dated 2014).
Starred links: 1 amine or outer side, 2 acyl side, 3 side chain; linkers in the order of their positions; H or OH if unused. Positions of bridges follow the written chain, without caps; N, C: chain ends. Residues, ends and D or L forms follow the SMILES beside them. *: point of attachment. C20 diacid = O=C(O)CCCCCCCCCCCCCCCCCCC(=O)*; γGlu = O=C(O)[C@H](CCC(=O)[*:2])N[*:1]

Tests used:
[1] = biological target: T1, rat amylin 3(a) receptor (rat calcitonin(a) receptor + rat RAMP3) (Rattus norvegicus, UniProt P32214+Q9JJ73); assay: Assay (II)b functional cAMP FlashPlate assay, rat amylin receptor; format: cell-based; conditions: Table 11
T1 construct: expressed in transfected cells; host or cells: BHK tk'ts 13
T1 sequence (P32214 25-479 isoform P32214-2 limits assumed): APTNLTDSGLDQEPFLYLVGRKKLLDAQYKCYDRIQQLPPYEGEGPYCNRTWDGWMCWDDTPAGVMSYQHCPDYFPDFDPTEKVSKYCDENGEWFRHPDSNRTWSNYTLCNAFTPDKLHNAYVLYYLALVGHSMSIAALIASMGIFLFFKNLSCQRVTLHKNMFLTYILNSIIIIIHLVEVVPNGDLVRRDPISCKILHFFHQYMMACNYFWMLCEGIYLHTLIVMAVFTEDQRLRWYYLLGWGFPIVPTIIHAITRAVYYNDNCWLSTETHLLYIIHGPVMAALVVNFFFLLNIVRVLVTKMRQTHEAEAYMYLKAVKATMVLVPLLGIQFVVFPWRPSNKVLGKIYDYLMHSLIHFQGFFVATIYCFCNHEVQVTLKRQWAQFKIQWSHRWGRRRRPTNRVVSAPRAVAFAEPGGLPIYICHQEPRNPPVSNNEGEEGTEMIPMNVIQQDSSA
T1 sequence (Q9JJ73 23-147 partner): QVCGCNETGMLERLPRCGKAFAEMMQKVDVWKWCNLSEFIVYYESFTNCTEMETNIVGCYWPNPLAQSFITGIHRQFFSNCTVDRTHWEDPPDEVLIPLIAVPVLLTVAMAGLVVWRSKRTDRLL
How it was run: (§1)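 BHK tk'ts 13 cells transiently transfected with rat calcitonin(a) receptor, alone or with rat RAMP3 (amylin 3(a)), were stimulated 24 hours later with sample for 30 min in buffer containing IBMX. cAMP measured by competitive radioactive FlashPlate assay, scintillation read after 3 h detection incubation.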

[2] = biological target: T2, rat calcitonin (a) receptor (Rattus norvegicus, UniProt P32214); assay: Assay (II)b functional cAMP FlashPlate assay, rat calcitonin receptor; format: cell-based; conditions: Table 11; read-out: CTa receptor rat EC50
T2 construct: expressed in transfected cells; host or cells: BHK tk'ts 13
T2 sequence (P32214 25-479 isoform P32214-2 limits assumed): T1 sequence (P32214 25-479 isoform P32214-2 limits assumed)
How it was run: as §1

[3] = Assay (III) ThT fibrillation assay for physical stability; format: physicochemical
How it was run: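 Freshly prepared formulations, pH-adjusted, with 1 μM ThT; four or eight replicates incubated at 37 °C under 960 rpm orbital shaking. Fluorescence (ex 444/em 485 nm) read every 20 min; […]. Peptide concentration measured by RP-HPLC before and after the run.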

Row | EC50 [1] [nM] | EC50 [2] [nM] | ThT pH 4.0 lag time ([3]; ThT fibrillation assay) [h] | ThT pH 4.0 lag time (h) ([3]; ThT fibrillation assay) | ThT pH 4.0 lag time ([3]; Table 8) [h] | ThT pH 4.0 lag time ([3]; Table 9) [h] | Structure (SMILES)
1 | 0.305 | 0.656 | >45 | >45 | – | – | CC[C@H](C)[C@H](NC(=O)[C@@H]1CCCN1C(=O)CNC(=O)[C@H](Cc1ccccc1)NC(=O)[C@H](CC(N)=O)NC(=O)[C@H](CC(N)=O)NC(=O)[C@H](CO)NC(=O)[C@H](CO)NC(=O)[C@H](Cc1c[nH]cn1)NC(=O)[C@H](Cc1c[nH]cn1)NC(=O)[C@H](CC(C)C)NC(=O)[C@H](Cc1ccccc1)NC(=O)[C@H](CCC(=O)O)NC(=O)[C@H](C)NC(=O)[C@H](CC(C)C)NC(=O)[C@H](CCCNC(=N)N)NC(=O)[C@H](CCC(N)=O)NC(=O)[C@@H](NC(=O)[C@H](C)NC(=O)[C@@H]1CSSC[C@H](NC(=O)[C@H](CCCCN)NC(=O)[C@H](Cc2c[nH]cn2)NC(=O)CC[C@H](NC(=O)CCCCCCCCCCCCCCCCCCC(=O)O)C(=O)O)C(=O)N[C@@H](CC(N)=O)C(=O)N[C@@H]([C@@H](C)O)C(=O)N[C@@H](C)C(=O)N[C@@H]([C@@H](C)O)C(=O)N1)[C@@H](C)O)C(=O)N[C@@H](CC(C)C)C(=O)N1CCC[C@H]1C(=O)N1CCC[C@H]1C(=O)N[C@H](C(=O)N[C@@H](CC(N)=O)C(=O)N[C@H](C(=O)NCC(=O)N[C@@H](CO)C(=O)N[C@@H](Cc1c[nH]cn1)C(=O)N[C@H](C(=O)N[C@@H](Cc1ccc(O)cc1)C(N)=O)[C@@H](C)O)C(C)C)[C@@H](C)O [Example 66, N-alpha-[(S)-4-Carboxy-4-(19-carboxynonadecanoylamino)butyryl]-His-[Glu14,His17,His35]-pramlintide] ({C20 diacid-γGlu}-HKCNTATCATQRLAEFLHHSSNNFGPILPPTNVGSHTY-NH2; disulfide 3-8 (inferred); C-terminus assumed)
2 | 0.348 | 0.287 | >45 | >45 | >45 | >45 | CC[C@H](C)[C@H](NC(=O)[C@@H]1CCCN1C(=O)CNC(=O)[C@H](Cc1ccccc1)NC(=O)[C@H](CC(N)=O)NC(=O)[C@H](CC(N)=O)NC(=O)[C@H](CO)NC(=O)[C@H](CO)NC(=O)[C@H](Cc1c[nH]cn1)NC(=O)[C@H](CCCNC(=N)N)NC(=O)[C@H](CC(C)C)NC(=O)[C@H](Cc1ccccc1)NC(=O)[C@H](CCC(=O)O)NC(=O)[C@H](C)NC(=O)[C@H](CC(C)C)NC(=O)[C@H](CCCNC(=N)N)NC(=O)[C@H](CCC(N)=O)NC(=O)[C@@H](NC(=O)[C@H](C)NC(=O)[C@@H]1CSSC[C@H](NC(=O)[C@H](CCCCN)NC(=O)CC[C@H](NC(=O)CCCCCCCCCCCCCCCCCCC(=O)O)C(=O)O)C(=O)N[C@@H](CC(N)=O)C(=O)N[C@@H]([C@@H](C)O)C(=O)N[C@@H](C)C(=O)N[C@@H]([C@@H](C)O)C(=O)N1)[C@@H](C)O)C(=O)N[C@@H](CC(C)C)C(=O)N1CCC[C@H]1C(=O)N1CCC[C@H]1C(=O)N[C@H](C(=O)N[C@@H](CC(N)=O)C(=O)N[C@H](C(=O)NCC(=O)N[C@@H](CO)C(=O)N[C@@H](CC(N)=O)C(=O)N[C@H](C(=O)N1CCC[C@H]1C(N)=O)[C@@H](C)O)C(C)C)[C@@H](C)O [Example 53, N-alpha-[(S)-4-Carboxy-4-(19-carboxynonadecanoylamino)butyryl]-[Glu14,Arg17,Pro37]-pramlintide]
3 | 0.0645 | 0.379 | – | 11 | – | – | CC[C@H](C)[C@H](NC(=O)[C@@H]1CCCN1C(=O)CNC(=O)[C@H](Cc1ccccc1)NC(=O)[C@H](CC(N)=O)NC(=O)[C@H](CC(N)=O)NC(=O)[C@H](CO)NC(=O)[C@H](CO)NC(=O)[C@H](CCCNC(=N)N)NC(=O)[C@H](Cc1c[nH]cn1)NC(=O)[C@H](CC(C)C)NC(=O)[C@H](Cc1ccccc1)NC(=O)[C@H](CCC(=O)O)NC(=O)[C@H](C)NC(=O)[C@H](CC(C)C)NC(=O)[C@H](CCCNC(=N)N)NC(=O)[C@H](CCC(N)=O)NC(=O)[C@@H](NC(=O)[C@H](C)NC(=O)[C@@H]1CSSC[C@H](NC(=O)[C@H](Cc2c[nH]cn2)NC(=O)CC[C@H](NC(=O)CCCCCCCCCCCCCCCCCCC(=O)O)C(=O)O)C(=O)N[C@@H](CC(N)=O)C(=O)N[C@@H]([C@@H](C)O)C(=O)N[C@@H](C)C(=O)N[C@@H]([C@@H](C)O)C(=O)N1)[C@@H](C)O)C(=O)N[C@@H](CC(C)C)C(=O)N1CCC[C@H]1C(=O)N1CCC[C@H]1C(=O)N[C@H](C(=O)N[C@@H](CC(N)=O)C(=O)N[C@H](C(=O)NCC(=O)N[C@@H](CO)C(=O)N[C@@H](CC(N)=O)C(=O)N[C@H](C(=O)N[C@@H](Cc1ccc(O)cc1)C(N)=O)[C@@H](C)O)C(C)C)[C@@H](C)O [Example 1, N-alpha-[(S)-4-Carboxy-4-(19-carboxynonadecanoylamino)butyryl]-[His1,Glu14,His17,Arg18]-pramlintide] ({C20 diacid-γGlu}-HCNTATCATQRLAEFLHRSSNNFGPILPPTNVGSNTY-NH2; disulfide 2-7 (inferred))
4 | 1.33 | 5.35 | >45 | >45 | >45 | – | CC(C)C[C@H](NC(=O)[C@H](CCCNC(=N)N)NC(=O)[C@H](CCC(N)=O)NC(=O)[C@@H](NC(=O)[C@H](C)NC(=O)[C@@H]1CSSC[C@H](NC(=O)[C@H](CCCCN)NC(=O)CC[C@H](NC(=O)CCCCCCCCCCCCCCCCCCC(=O)O)C(=O)O)C(=O)N[C@@H](CC(N)=O)C(=O)N[C@@H]([C@@H](C)O)C(=O)N[C@@H](C)C(=O)N[C@@H]([C@@H](C)O)C(=O)N1)[C@@H](C)O)C(=O)N[C@@H](C)C(=O)N[C@@H](CCC(=O)O)C(=O)N[C@@H](Cc1ccccc1)C(=O)N[C@@H](CC(C)C)C(=O)N[C@@H](CCCNC(=N)N)C(=O)N[C@@H](Cc1c[nH]cn1)C(=O)N[C@@H](CO)C(=O)N[C@@H](CO)C(=O)N[C@@H](CC(N)=O)C(=O)N[C@@H](CC(N)=O)C(=O)N[C@@H](Cc1ccccc1)C(=O)NCC(=O)N[C@@H](C)C(=O)N1CCC[C@H]1C(=O)N[C@@H](CC(C)C)C(=O)N[C@@H](CO)C(=O)N[C@@H](CO)C(=O)N[C@H](C(=O)N[C@@H](CC(N)=O)C(=O)N[C@H](C(=O)NCC(=O)N[C@@H](CO)C(=O)N[C@@H](Cc1c[nH]cn1)C(=O)N[C@H](C(=O)N[C@@H](Cc1ccc(O)cc1)C(N)=O)[C@@H](C)O)C(C)C)[C@@H](C)O [Example 65, N-alpha-[(S)-4-Carboxy-4-(19-carboxynonadecanoylamino)butyryl]-[Glu14,Arg17,Ala25,Pro26,Ser28,Ser29,His35]-pramlintide] ({C20 diacid-γGlu}-KCNTATCATQRLAEFLRHSSNNFGAPLSSTNVGSHTY-NH2; disulfide 2-7 (inferred); C-terminus assumed)
5 | 0.3 | 0.37 | >45 | >45 | >45 | >45 | CC[C@H](C)[C@H](NC(=O)[C@@H]1CCCN1C(=O)CNC(=O)[C@H](Cc1ccccc1)NC(=O)[C@H](CC(N)=O)NC(=O)[C@H](CC(N)=O)NC(=O)[C@H](CO)NC(=O)[C@H](CO)NC(=O)[C@H](Cc1c[nH]cn1)NC(=O)[C@H](CCCNC(=N)N)NC(=O)[C@H](CC(C)C)NC(=O)[C@H](Cc1ccccc1)NC(=O)[C@H](CCC(=O)O)NC(=O)[C@H](C)NC(=O)[C@H](CC(C)C)NC(=O)[C@H](CCCNC(=N)N)NC(=O)[C@H](CCC(N)=O)NC(=O)[C@@H](NC(=O)[C@H](C)NC(=O)[C@@H]1CSSC[C@H](NC(=O)CNC(=O)CC[C@H](NC(=O)CCCCCCCCCCCCCCCCCCC(=O)O)C(=O)O)C(=O)N[C@@H](CC(N)=O)C(=O)N[C@@H]([C@@H](C)O)C(=O)N[C@@H](C)C(=O)N[C@@H]([C@@H](C)O)C(=O)N1)[C@@H](C)O)C(=O)N[C@@H](CC(C)C)C(=O)N1CCC[C@H]1C(=O)N1CCC[C@H]1C(=O)N[C@H](C(=O)N[C@@H](CC(N)=O)C(=O)N[C@H](C(=O)NCC(=O)N[C@@H](CO)C(=O)N[C@@H](CC(N)=O)C(=O)N[C@H](C(=O)N1CCC[C@H]1C(N)=O)[C@@H](C)O)C(C)C)[C@@H](C)O [Example 88, N-alpha-[(S)-4-Carboxy-4-(19-carboxynonadecanoylamino)butyryl]-[Gly1,Glu14,Arg17,Pro37]-pramlintide] ({C20 diacid-γGlu}-GCNTATCATQRLAEFLRHSSNNFGPILPPTNVGSNTP-NH2; disulfide 2-7 (inferred); C-terminus assumed)
